Laboratory results: patent publication US10590143B2, “Herbicidally active (alkynyl-phenyl)-substituted cyclic dione compounds and derivatives thereof” (Syngenta Limited, priority 2013, dated 2020)
Like-named read-outs stand apart in the source and are kept apart here.

Key:
Assay in all cases: Biological Example 1 glasshouse assay for herbicidal activity
Assay type in all cases: in vivo
[1] = test system: Abutilon theophrasti (ABUTH); details: 312 h, 13 days after application, read-out: percentage phytotoxicity ABUTH
Experimental: (§1) Seeds of a variety of test plant species were sown in standard soil** in pots. After cultivation for one day (pre-emergence) or after 8 days cultivation (post-emergence) under controlled conditions in a glasshouse (at 24/16° C., day/night; 14 hours light; 65% humidity), the plants were sprayed with an aqueous spray solution derived from the formulation of the technical active ingredient (the test herbicide) in acetone/water (50:50) solution containing 0.5% Tween 20 (polyoxyethylene sorbitan monolaurate, CAS Reg. No. 9005-64-5). The test plants were then grown on under controlled conditions in a glasshouse (at 24/16° C., day/night; 14 hours light; 65% humidity) and watered twice daily. 13 Days after application of the test herbicide, for pre- and post-emergence, the test was evaluated visually for percentage phytotoxicity to each plant (where 100%=total damage to plant; 0%=no damage to plant). Generally, each test herbicide is only tested on 1 plant per plant species for each application rate tested and for each application timing. **The “standard soil” in Biological Example 1 is usually a “sand” or “sandy loam” type of soil.
(§2) Dicotyledonous weeds: ABUTH=Abutilon theophrasti; AMARE=Amaranthus retroflexus. Grassy monocotyledonous weeds: SETFA=Setaria faberi; ALOMY=Alopecurus myosuroides; ECHCG=Echinochloa crus-galli; ZEAMX=Zea mays (corn, maize, e.g. volunteer corn).

[2] = test system: Alopecurus myosuroides (ALOMY); details: 312 h, 13 days after application, read-out: percentage phytotoxicity ALOMY
Experimental: as §1, §2

[3] = test system: Amaranthus retroflexus (AMARE); details: 13 days after application; for pest or weed control at 30 g/ha / pest or weed control at 250 g/ha / pest or weed control at 8 g/ha: Amaranthus retroflexus, 312 h, read-out: percentage phytotoxicity AMARE
Experimental: as §1, §2

[4] = test system: Echinochloa crus-galli (ECHCG); details: 13 days after application; for pest or weed control at 30 g/ha / pest or weed control at 250 g/ha / pest or weed control at 8 g/ha: Echinochloa crus-galli, 312 h, read-out: percentage phytotoxicity ECHCG; for pest or weed control at 250 g/ha / percentage phytotoxicity ECHCG: 250 g/ha
Experimental: as §1, §2

Setaria faberi (SETFA) = details: 312 h, 13 days after application, read-out: percentage phytotoxicity SETFA
Experimental: as §1, §2

[5] = test system: Zea mays (ZEAMX, corn, maize, e.g. volunteer corn); details: 13 days after application; for pest or weed control at 30 g/ha / pest or weed control at 250 g/ha / pest or weed control at 8 g/ha: Zea mays, 312 h, read-out: percentage phytotoxicity ZEAMX; for pest or weed control at 250 g/ha / percentage phytotoxicity ZEAMX: 250 g/ha
Experimental: as §1, §2

[6] = post-emergence, post-emergence, 250 g/ha
[7] = pre-emergence, pre-emergence, 250 g/ha

| Compound | pest or weed control at 30 g/ha ([1]; post-emergence, post-emergence) [%] | pest or weed control at 250 g/ha ([1]; post-emergence, post-emergence) [%] | pest or weed control at 30 g/ha ([1]; pre-emergence, pre-emergence) [%] | pest or weed control at 250 g/ha ([1]; pre-emergence, pre-emergence) [%] | pest or weed control at 30 g/ha ([2]; post-emergence) [%] | pest or weed control at 250 g/ha ([2]; post-emergence) [%] | pest or weed control at 30 g/ha ([2]; pre-emergence) [%] | pest or weed control at 250 g/ha ([2]; pre-emergence) [%] | pest or weed control at 250 g/ha [3, 6] [%] | pest or weed control at 30 g/ha ([3]; pre-emergence, pre-emergence) [%] | pest or weed control at 250 g/ha [3, 7] [%] | pest or weed control at 30 g/ha ([4]; post-emergence, post-emergence) [%] | pest or weed control at 250 g/ha ([4]; post-emergence, post-emergence) [%] | pest or weed control at 250 g/ha ([4]; pre-emergence, pre-emergence) [%] | pest or weed control at 250 g/ha (Setaria faberi (SETFA); post-emergence, post-emergence) [%] | pest or weed control at 250 g/ha (Setaria faberi (SETFA); pre-emergence, pre-emergence) [%] | pest or weed control at 30 g/ha ([5]; post-emergence, post-emergence) [%] | pest or weed control at 250 g/ha ([5]; post-emergence, post-emergence) [%] | pest or weed control at 30 g/ha ([5]; pre-emergence, pre-emergence) [%] | pest or weed control at 250 g/ha ([5]; pre-emergence, pre-emergence) [%] | further results |
| --- | --- | --- | --- | --- | --- | --- | --- | --- | --- | --- | --- | --- | --- | --- | --- | --- | --- | --- | --- | --- | --- |
| CC#Cc1cc(F)c(C2C(=O)C3CCC(C)(C2=O)C3(C)C)c(OC)c1 (stereo not shown) [Compound A2] | 0 | 0 | 60 | 60 | 80 | 90 | 70 | 90 | 0 | 10 | 40 | 100 | 100 | 100 | 90 | 100 | 100 | 100 | 60 | 100 | pest or weed control at 30 g/ha ([3]; post-emergence, post-emergence): 0%; pest or weed control at 30 g/ha ([4]; pre-emergence, pre-emergence): 90%; pest or weed control at 30 g/ha (Setaria faberi (SETFA); post-emergence, post-emergence): 90%; pest or weed control at 30 g/ha (Setaria faberi (SETFA); pre-emergence, pre-emergence): 70% |
| CC#Cc1cc(F)c(C2C(=O)C3CCC(C3)C2=O)c(OC)c1 (stereo not shown) [Compound A1, 3-(2-Fluoro-6-methoxy-4-prop-1-ynyl-phenyl)-bicyclo[3.2.1]octane-2,4-dione] |  |  | 0 |  | 100 | 100 | 100 | 100 | 30 | 0 | 20 | 100 | 100 | 100 | 100 | 100 | 100 | 100 | 100 | 100 | pest or weed control at 8 g/ha ([1]; post-emergence, post-emergence): 0%; pest or weed control at 8 g/ha ([1]; pre-emergence, pre-emergence): 0%; pest or weed control at 8 g/ha ([2]; post-emergence): 80%; pest or weed control at 8 g/ha ([2]; pre-emergence): 70%; pest or weed control at 8 g/ha ([3]; post-emergence, post-emergence): 0%; pest or weed control at 8 g/ha ([3]; pre-emergence, pre-emergence): 0%; percentage phytotoxicity AMARE ([3]; post-emergence, 250 g/ha): 30%; percentage phytotoxicity ECHCG ([4]; post-emergence): 100%; percentage phytotoxicity ECHCG ([4]; pre-emergence): 100%; pest or weed control at 8 g/ha (Setaria faberi (SETFA); pre-emergence, pre-emergence): 50%; pest or weed control at 8 g/ha ([5]; post-emergence, post-emergence): 100%; pest or weed control at 8 g/ha ([5]; pre-emergence, pre-emergence): 60%; percentage phytotoxicity ZEAMX ([5]; post-emergence): 100%; percentage phytotoxicity ZEAMX ([5]; pre-emergence): 100% |
| CC#Cc1cc(F)c(C2C(=O)C3CCC(C3)C2=O)c(OC(F)F)c1 (stereo not shown) [Compound A7] | 0 | 70 | 20 | 30 | 60 | 90 | 60 | 100 | 60 | 40 | 70 | 90 | 100 | 100 | 90 | 70 | 80 | 100 | 80 | 100 | pest or weed control at 30 g/ha ([3]; post-emergence, post-emergence): 50%; pest or weed control at 30 g/ha ([4]; pre-emergence, pre-emergence): 60%; pest or weed control at 30 g/ha (Setaria faberi (SETFA); post-emergence, post-emergence): 70%; pest or weed control at 30 g/ha (Setaria faberi (SETFA); pre-emergence, pre-emergence): 50% |
| CC#Cc1cc(F)c(C2=C(OC(=O)c3ccccc3)C3CCC(C3)C2=O)c(OC)c1 (stereo not shown) [Compound P5, [3-(2-fluoro-6-methoxy-4-prop-1-ynyl-phenyl)-4-oxo-2-bicyclo[3.2.1]oct-2-enyl]benzoate] | 10 | 80 | 0 | 60 | 90 | 90 | 70 | 100 | 20 | 20 | 70 | 100 | 100 | 100 | 90 | 80 | 100 | 100 | 80 | 100 | pest or weed control at 8 g/ha ([1]; post-emergence, post-emergence): 0%; pest or weed control at 8 g/ha ([2]; post-emergence): 70%; pest or weed control at 8 g/ha ([3]; post-emergence, post-emergence): 0%; pest or weed control at 30 g/ha ([3]; post-emergence, post-emergence): 0%; pest or weed control at 8 g/ha ([4]; post-emergence, post-emergence): 90%; pest or weed control at 30 g/ha ([4]; pre-emergence, pre-emergence): 80%; pest or weed control at 8 g/ha (Setaria faberi (SETFA); post-emergence, post-emergence): 60%; pest or weed control at 30 g/ha (Setaria faberi (SETFA); post-emergence, post-emergence): 80%; pest or weed control at 30 g/ha (Setaria faberi (SETFA); pre-emergence, pre-emergence): 60%; pest or weed control at 8 g/ha ([5]; post-emergence, post-emergence): 100% |
| CC#Cc1cc(F)c(C2=C(OC(=O)C(C)(C)C)C3CCC(C3)C2=O)c(OC)c1 (stereo not shown) [Compound P1] | 0 | 80 | 10 | 30 | 90 | 100 | 70 | 100 | 40 | 50 | 70 | 100 | 100 | 100 | 100 | 80 | 100 | 100 | 90 | 100 | pest or weed control at 8 g/ha ([1]; post-emergence, post-emergence): 0%; pest or weed control at 8 g/ha ([2]; post-emergence): 60%; pest or weed control at 8 g/ha ([3]; post-emergence, post-emergence): 0%; pest or weed control at 30 g/ha ([3]; post-emergence, post-emergence): 10%; pest or weed control at 8 g/ha ([4]; post-emergence, post-emergence): 80%; pest or weed control at 30 g/ha ([4]; pre-emergence, pre-emergence): 90%; pest or weed control at 8 g/ha (Setaria faberi (SETFA); post-emergence, post-emergence): 70%; pest or weed control at 30 g/ha (Setaria faberi (SETFA); post-emergence, post-emergence): 80%; pest or weed control at 30 g/ha (Setaria faberi (SETFA); pre-emergence, pre-emergence): 40%; pest or weed control at 8 g/ha ([5]; post-emergence, post-emergence): 100% |
